# ± gives the standard deviation of the averaged measurements.
# System: SK-LMS-1
# Assay: relative viability vs DMSO control (72 h) (fraction); higher = more viable cells
# Outline: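 Sarcoma cell lines were plated in 384 wells to reach 80–90% confluence, treated after 24 h with 2.5 µl of serially diluted compound and held 72 h at 37 °C, 5% CO2. Relative viability was taken as percent growth from ATPLite readings, averaged over up to triplicate wells. The values were rescaled so that 1 marks full and 0 marks none.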
Structure (SMILES),relative viability (0.00017 µM),relative viability (0.00051 µM),relative viability (0.00152 µM),relative viability (0.00457 µM),relative viability (0.01372 µM),relative viability (0.04115 µM),relative viability (0.1235 µM),relative viability (0.3704 µM),relative viability (1.111 µM),relative viability (3.333 µM),relative viability (10 µM)
COc1cc2nccc(Oc3ccc(NC(=O)Nc4cc(C)on4)c(Cl)c3)c2cc1OC [Tivozanib],1.01 ± 0.022,0.999 ± 0.029,1.05 ± 0.04,1.05 ± 0.037,1.03 ± 0.038,0.9926 ± 0.0016,0.989 ± 0.036,1.08 ± 0.044,1.16 ± 0.043,0.908 ± 0.058,0.462 ± 0.015
C[C@]1(O)C[C@@H](c2nc(-c3ccc4ccc(-c5ccccc5)nc4c3)c3c(N)nccn32)C1 [Linsitinib],1.04 ± 0.02,1.07 ± 0.022,1.05 ± 0.067,1.07 ± 0.025,1.04 ± 0.022,1.01 ± 0.025,1.01 ± 0.034,1.03 ± 0.019,1.01 ± 0.026,0.938 ± 0.011,0.71 ± 0.027
C=CC(=O)Nc1cccc(Oc2nc(Nc3ccc(N4CCN(C)CC4)cc3)nc3ccsc23)c1 [Olmutinib],1.06 ± 0.047,1.08 ± 0.013,1.07 ± 0.044,1.076 ± 0.006,1.09 ± 0.029,1.06 ± 0.015,1.08 ± 0.013,1.05 ± 0.04,0.976 ± 0.033,0.843 ± 0.016,0.113 ± 0.03
O=C(Nc1cnn2ccc(N3CCC[C@@H]3c3cc(F)ccc3F)nc12)N1CC[C@H](O)C1 [Larotrectinib],1.12 ± 0.03,1.16 ± 0.051,1.13 ± 0.057,1.08 ± 0.015,1.07 ± 0.047,1.11 ± 0.025,1.11 ± 0.028,1.06 ± 0.026,1.08 ± 0.03,1.08 ± 0.032,1.071 ± 0.0057

# Reference: the supplement of paper PMC10883282
